Source: patent EP1353939B1, “TETRAPEPTIDE REGULATING PROSTATE FUNCTIONS AND ITS COMPOSITIONS AND USES” (Sankt-Peterburgskaya Obschestvennaya Organizatsia …, priority 2001, dated 2004)
Read-outs that look alike come from different tables or passages of the source. Marks after values point to notes of the source that are not given here.

Experiments:
[1] = system: processes of free radical oxidation; details: 0.1 µg per injection s.c. for 10 days
Experimental: The animals were subcutaneously administered with 0.1 µg of the tetrapeptide per injection for 10 days. The controls were similarly injected with 0.9 % natural saline solution. The rats were euthanasised on the next day after the last introduction of the tetrapeptide.
Afterwards, samples of the brain and liver tissues and blood serum were prepared and peroxide lipid oxidation (PLO) intensity in them was studied by the content of diene conjugates and Schiff's bases. The activity of glutathione peroxidase and superoxide dismutase was defined as well by the method of suppressing nitroblue tetrasolium oxidation with biological material.

[2] = system: chronic bacterial prostatitis
Experimental: The investigation was performed on 41 white mongrel male rats weighing on average 230 g. Bacterial prostatitis was induced in the rats by transurethral introduction of enterotoxigenic E.coli suspension K-2935 (01: K1: H-). A glycerine-lubricated catheter was inserted into the animals' urethra under a light ether narcosis after treating the external urethra opening with 70 % alcohol. 0.2 ml of bacterial suspension (10^9 colony-forming units per ml) was instilled via catheter with a syringe. Control animals were injected with 0.2 ml of 0.9 % natural saline solution through the catheter. […] The injections were performed daily for 10 days. The control groups included intact animals, animals with untreated chronic prostatitis and those treated with injections of 0.9 % natural saline solution applied by the same plan.
All the rats were euthanasised by decapitation on the 70th day of the experiment. The animals were subjected to complete autopsy. Their testes and epididymes, prostate, seminal vesicles, bulbourethral glands, urinary bladder, kidneys with ureters and other intrinsic organs were examined. For histology the ventral segment of the prostate was fixed in 10 % neutral formalin and - after a standard processing with a series of solvents - embedded in paraffin. 5-7-µm thin tissue sections were stained with haematoxylin-eosin.
The degree of prostatitis manifestation throughout the groups was assessed according to the below 5-point scale: • 1 point - traces of prostatitis (small foci of fibrosis, interstitial lymphocytic and histiocytic infiltration); • 2 points - foci of chronic prostatitis with inflammatory infiltration (basically, interstitial one) occupying less than ¼ of the gland section; • 3 points - prostatitis foci with large inflammatory infiltrates surrounding the ducts, acini and blood vessels, with leukocytic conglomerations in the glandular lumens, embracing ¼ - ½ of the gland section; • 4 points - expressed prostatitis covering ½ - ¾ of the gland section; • 5 points - strongly expressed prostatitis affecting over ¾ of the gland section.
The prostate sites were also used for electron microscopic examination and tests on the content of zinc, which makes a part of compositions with anti-microbial activity.

urinary bladder explants = details: 20 ng/ml, third day of cultivation
Experimental: The experiments were carried out in 45 urinary bladder fragments of 10-11-days old chicken embryos. The nutrient medium for the explant cultivation included 35 % of Eagle's solution, 25 % of foetal calf serum, 35 % of Hanks' solution, 5 % of chicken embryonic extract and was added glucose (0.6 %), insulin (0.5 unit/ml), penicillin (100 unit/ml) and glutamine (2 mM). The urinary bladder fragments were placed in this medium and cultivated in Petri's dishes in a thermostat at 36.7°C for 48 hours. […] Square index (SI) was taken for a biological activity criterion and calculated as a correlation of the total explant square (including the growth zone) to the initial square of a urinary bladder fragment. The SI values were expressed per cent, the control SI value - taken for 100 %.

lysyl-glutamyl-aspartyl-proline [Lys-Glu-Asp-Pro tetrapeptide]
Diene conjugates ([1]; Blood serum): 5.28 ± 0.33 nmol/mL
Glutathione peroxidase ([1]; Blood serum): 2.85 ± 0.06 mmol of GlSH/min/mg of protein
Schiff's bases ([1]; Blood serum): 17.40 ± 1.54 conv. unit/ml
Superoxide dismutase ([1]; Blood serum): 0.826 ± 0.060 conv. unit/mg of protein
Diene conjugates ([1]; Brain): 46.14 ± 2.91 mnol/ml
Glutathione peroxidase ([1]; Brain): 50.7±0.2 mmole of GlSH/min/mg of protein
Schiff's bases ([1]; Brain): 237.3 ± 17.8 conv. unit/ml
Superoxide dismutase ([1]; Brain): 26.7 ± 3.0 conv. unit/mg of protein
Diene conjugates ([1]; Liver): 44.76 ± 2.48 nmol/mL
Glutathione peroxidase ([1]; Liver): 798.0±29.1 mmol of GlSH/min/mg of protein
Schiff's bases ([1]; Liver): 556.5 ±37.6 conv. unit/ml
Superoxide dismutase ([1]; Liver): 54.1 ± 7.9 conv. unit/mg of protein
positive dynamics of inflammatory processes in the prostate ([2]; 0.1 µg per injection s.c. daily for 10 days): 7 cases out of 11
Degree of prostatitis in points Per rat in the group ([2]; 0.1 µg per injection s.c. daily for 10 days, from day 45 after infection, 5-point scale): 1.81 ± 0.09 points
Degree of prostatitis in points Per prostatitis-affected rat ([2]; 0.1 µg per injection s.c. daily for 10 days, 5-point scale): 2.86* points
mean concentration of zinc in the prostate tissue ([2]; after application of the tetrapeptide (Figure 2)): decreased
Number of rats in the group Prostatitis -affected ([2]; of 11 rats in total, 0.1 µg per injection s.c. daily for 10 days): 7
increase in the explant SI as compared to the control value (urinary bladder explants): 23%
